Measurements as given in patent US12134601B2, “Compounds for inhibiting LY6K and methods of using same” (The Henry M. Jackson Foundation for the Advancement of …, priority 2017, dated 2024).

Assays:
[1] = Preliminary experiments for maximum tolerated dose; type: in vivo; conditions: 5 mg/kg/ip
[2] = target: T1, human Ly6K protein (Homo sapiens, UniProt Q17RY6); assay: Surface plasmon resonance binding to immobilized Ly6K (Biacore T100)
T1 construct: correspond to residues 18-138, which constitute the mature form of Ly6K; His tag (N); made in house; host or cells: E. coli BL21DE
T1 sequence (Q17RY6 18-138): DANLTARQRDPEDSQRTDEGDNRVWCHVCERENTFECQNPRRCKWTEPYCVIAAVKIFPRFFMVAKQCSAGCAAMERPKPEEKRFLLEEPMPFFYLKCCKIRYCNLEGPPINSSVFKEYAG
Experimental: (§1) FIG. 11: Small molecule binders of Ly6K. (A) Mature form of Ly6E, Ly6D and Ly6K were cloned in pET24a N-term His tag vector (Epoch Biosciences); expressed in BL21DE E. coli; purified recombinant protein was prepared using histidine column in using a batch purification method and eluted in 500 mM imidazole PBS, dialyzed in PBS. 5 μl of eluate was run on the 15% SDS-PAGE showing the purity with expected size protein of single band. (B) Structure of NSC243928. (G) Structure of NSC11150. (C-F; H-K) Representative surface plasmon resonance (SPR) sensorgrams show time on X-axis and SPR binding response on Y-axis. […] The corresponding data for NSC11150 are shown in corresponding lower panel.
We used surface plasmon resonance to identify small molecule binders of Ly6K. We screened a panel of 2000 small molecules, obtained from the Developmental Therapeutic Program (DTP, NCI). […] These five molecules were further tested for their ability to induce cell death, TGFβ1/Smad2/3 phosphorylation, IFNγ/Stat1 phosphorylation and PD-L1 protein expression. NSC243928 and NSC11150 were selected for further study on the basis of specificity and selectivity in bio-assays and structural flexibility, which allow future modifications required for in-depth studies (described in FIG. 11). The small molecule NSC243928 has been previously used in an in vivo anti-tumor screen by the NCI on a L1210 leukemia model in BDF1 syngeneic mice, a standard model used between 1955 and 1975. The average survival in this tumor model is 2-3 weeks. Treatment with NSC243928 increased survival benefit from 30% to 100% in a dose dependent manner. […] NSC11150 was not tested in in-vivo or in-vitro anti-tumor screens. […] As discussed infra, NSC243928 and NSC11150 inhibit TGFβ and PD-L1 pathways in a Ly6K dependent manner, indicating a mechanistic basic for the novel activities of these compounds (please see FIG. 11, 12). These experiments provide proof of the principle that small molecule targeting of Ly6K will have functional consequences and potentially lead to a better outcome in cancer treatment. […]

[3] = test system: IFNγ/Stat1 signaling; assay: IFNγ-induced Stat1 phosphorylation (western blot); type: cell-based, human; conditions: 2 μM drug, 30 minutes
Experimental: (§2) FIG. 12: Effect of small molecule binders of Ly6K. (A) Indicated cells were seeded and allowed to attach overnight, then treated with 2 μM drugs for 72 hours. Cell titer assay was performed to measure cell growth. (B) Cells were serum starved and treated with 100 ng/ml IFNγ with 2 μM drugs. PD-L1 was measure in live cells (using a zombie live-dead stain) as described in FIG. 3A. The graph was plotted from three experiments. (C, D) Indicated cells were allowed to attach, serum starved overnight and then treated with TGFβ (C) or IFNγ (D) in the presence of 2 μM drug for 30 minutes and western blot analysis was performed. The *** represents p<0.0005 and NS=non-significant in a two-tailed student T-test.
(§3) NSC243928 inhibited the TGFβ1 induced phosphorylation of Smad2/3; NSC11150 had no effect on TGFβ1/Smad2/3 signaling (FIG. 12C). NSC11150 inhibited IFNγ induced phosphorylation of Stat1; NSC243928 had no effect on IFNγ/Stat1 signaling (FIG. 12D).

[4] = target: T2, Ly6D (Homo sapiens, UniProt Q14210); assay: Surface plasmon resonance binding to Ly6D
T2 construct: Mature form of Ly6E, Ly6D and Ly6K were cloned in pET24a N-term His tag vector; His tag (N); made in house; host or cells: E. coli BL21DE
T2 sequence (Q14210 21-98 limits assumed): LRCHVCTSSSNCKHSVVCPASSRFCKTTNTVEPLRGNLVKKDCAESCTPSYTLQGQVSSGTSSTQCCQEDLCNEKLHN
Experimental: as §1
(§4) We performed a surface plasmon resonance assay using the Biacore T100 by immobilizing the purified human Ly6K protein on the surface of a CM5 chip and screening the binding with a small molecule library containing 2000 compounds (Developmental Therapeutics Program, NCI). An initial screening of molecules was performed at 1 or 10 μM compound, based on solubility. We used a model that compares the actual binding maximum (RUactual) with the theoretical binding maximum (RUtheor). […] Hits (RUactual to RUtheor of 0.7-2.0) were then reviewed by a team of medicinal chemists and those with structural potential were selected for further study. […]

[5] = test system: PD-L1; assay: IFNγ-induced PD-L1 protein expression in live cells (flow cytometry); type: cell-based, human; conditions: control cells, 100 ng/ml IFNγ, 2 μM drug
Experimental: FIG. 3: Ly6K is required for IFNγ/PD-L1 pathway. (A) Indicated cells were serum starved prior to treatment with IFNγ 100 ng/ml overnight. Cells were labeled with anti-PD-L1 BV540 antibody or isotype control antibody prior to fixation to assess the cell surface expression of PD-L1 protein. Percentage of high PD-L1 cells were plotted in a bar graph from three different experiments and subjected to a two tailed student T-test, wherein p<0.05 is considered significant. (B) Western blotting analysis for indicated proteins. (C) Hypothesized effect of Ly6K on IFNγ/Stat1 pathway leading to increased PD-L1.
as §2, with “T-test. […]” for “T-test.”

[6] = test system: MDA-MB-231 cells (control and Ly6K knockdown); assay: Cell titer assay of cell growth / cell death; type: cell-based, human; conditions: for Cell growth: 72 hours
Experimental: as §2, with “(A) Indicated cells were seeded and allowed to attach overnight, then treated with 2 μM drugs for 72 hours.” left out
as §3

[7] = test system: 4T1 mammary tumor; assay: 4T1 mammary tumor growth in syngeneic mouse model; type: in vivo, mice (Balb/c); conditions: 5 mg/kg/i.p. after tumor establishment at 50-70 mm^3
Excerpt: FIG. 4: Ly6K is required for tumor growth in syngeneic mammary tumor models. (A) The qRT-PCR analysis using […] gene expression assay for mRNA levels in scrambled shRNA (Con) and Ly6K knockdown (Ly6K sh) cells. (B) The western blot analysis (cell signaling antibodies). (C) For 4T1 model, 20K cells/site in Balb/c mice and for E0771, 500K cells/site in C57BL/6 syngeneic mice were transplanted into lower mammary fat pad by subcutaneous injection (number of mice 10 per cell line pair). Tumor measurements were performed using a Vernier caliper. The tumor volumes were calculated using equation 1⁄2*length*(width*width). ** indicates p<0.001 and NS=non-significant (p>0.05) in a two tailed student T-test. FIG. 5: Effect of small molecules on in vivo tumor growth. (A) NCI data-Indicated doses of NSC243928 in saline were given by intraperitoneal route (i.p.) every day for 9 days to BIDF syngeneic mice carrying […] leukemia cells. Each group has 6 mice. Mouse were monitored for 30 days after drug treatment. […] The ** represents p<0.005 in a two tailed student T-test. Each group has 10 mice. We used surface plasmon resonance to identify small molecule binders of Ly6K. We screened a panel of 2000 small molecules, obtained from the Developmental Therapeutic Program (DTP, NCI). […]

[8] = test system: TGFβ1/Smad2/3 signaling; assay: TGFβ1-induced Smad2/3 phosphorylation (western blot); type: cell-based, human; conditions: 2 μM drug, 30 minutes
Experimental: as §2, §3

[9] = target: T3, Ly6E (Homo sapiens, UniProt Q16553); assay: Surface plasmon resonance binding to Ly6E
T3 construct: Mature form of Ly6E, Ly6D and Ly6K were cloned in pET24a N-term His tag vector; His tag (N); made in house; host or cells: E. coli BL21DE
T3 sequence (Q16553 21-101 limits assumed): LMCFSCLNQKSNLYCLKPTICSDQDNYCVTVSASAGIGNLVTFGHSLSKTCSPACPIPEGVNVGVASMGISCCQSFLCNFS
Experimental: as §1, §4

[10] = test system: L1210 leukemia; conditions: up to 10 mg/kg/i.p.; cited from earlier work

| SMILES | Therapeutic benefit [1] | SPR binding response to Ly6K [2] | Kd ([2]; SPR) [µM] | IFNγ induced phosphorylation of Stat1 [3] | SPR binding response to Ly6D [4] | PD-L1 protein expression [5] | Effect on cell death ([6]; 2 μM) | Cell death ([6]; 100 μM, both control and Ly6K knockdown cells) | 4T1 mammary tumor growth [7] | TGFβ1 induced phosphorylation of Smad2/3 [8] | SPR binding response to Ly6E [9] | Visible toxicity [1] | Cell growth ([6]; Ly6K knockdown MDA-MB-231 cells, 2 μM) | Cell growth ([6]; control MDA-MB-231 cells, 2 μM) | Toxicity [10] |
| --- | --- | --- | --- | --- | --- | --- | --- | --- | --- | --- | --- | --- | --- | --- | --- |
| Oc1ccc(Cc2ccc(Cl)cc2)c(O)c1 [NSC11150, 4-(4-chlorobenzyl)benzene-1,3-diol] | therapeutic benefit | binding response in dose dependent manner | 1.6 | inhibited | don't show binding response | inhibition of PD-L1 expression | did not show significant effect | induced cell death | suppress 4T1 mammary tumor growth | had no effect | don't show binding response |  |  |  |  |
| CCS(=O)(=O)Nc1ccc(Nc2c3ccccc3nc3ccccc23)c(OC)c1.CS(=O)(=O)O [NSC243928, 4′-(9-Acridinylamino)-3′-methoxyethanesulfonanilide methanesulfonate] | therapeutic benefit | binding response in dose dependent manner |  | had no effect | don't show binding response | did not show significant effect |  |  | suppress 4T1 mammary tumor growth | inhibited | don't show binding response | no visible toxicity | lost its activity | diminished the growth | not found to be toxic |
